One experiment has as its target T1, MCL-1 (Homo sapiens, UniProt Q07820).
T1 construct: purchased BPS Bioscience
Nature of the experiment: Cell free Mcl-1:Bim affinity assay (fluorescence polarization competition). It counts as binding. To be noted: 15 nM MCL-1, 5 nM FITC-Bim tracer, 1 hour at room temperature; Ki calc. from IC50 by Nikolovska-Coleska's equation; read-out: BIM_ Ki. Here is the method:
Cell Free Mcl-1:Bim Affinity Assay (Mcl-1 Bim)
The binding affinity of each compound was measured via a fluorescence polarization competition assay, in which the compound competes for the same binding site with the ligand, and thus leads to a dose-dependent anisotropy reduction. The tracer ligand utilized was a fluorescein isothiocyanate labelled peptide (FITC-[…]) derived from Bim (GenScript).
The assay was carried out in black half-area 96-well NBS plate (Corning), containing 15 nM of MCL-1 (BPS Bioscience), 5 nM of FITC-Bim and 3-fold serial diluted test compounds in a total volume of 50 μL of assay buffer (20 mM HEPES, 50 mM NaCl, 0.002% Tween 20, 1 mM TCEP, and 1% DMSO). The reaction plate was incubated for 1 hour at room temperature. The change of anisotropy is measured with an Envision multimode plate reader (PerkinElmer) at emission wavelength 535 nm. Fluorescence polarization was calc. in mP unit and the percentage inhibition was calc. by % inhibition=100×(mPDMSO−mP)/(mPDMSO−mPPC), in which mPDMSO is the DMSO control, and mPPC is the positive control. IC50 values were determined from a 10-point dose response curve by fitting the percent inhibition against compound concentration using the GraphPad Prism software. The inhibition constant Ki was subsequently calc. according to the Nikolovska-Coleska's equation (Anal. Biochem., 2004, 332, 261),
where [I]50 is the concentration of the free inhibitor at 50% inhibition, [L]50 is the concentration of the free labeled ligand at 50% inhibition, [P]0 is the concentration of the free protein at 0% inhibition, and Kd is the dissociation constant of the protein-ligand complex.

The next experiment relates to H929 cells. Nature of the experiment: Cell viability assay (H929 10 FBS). To be noted: CellTiter-Glo or ATPlite, read-out: H929_10FBS IC50. Format: cell-based. Here is the method:
Cell Viability Assay (H929 10 FBS)
Dispense 10 μL aliquot of prepared H929 cells (1:1 ratio of cells:Trypan Blue (#1450013, Bio-Rad)) onto cell counting slide (#145-0011, Bio-Rad) and obtain cell density and cell viability using cell counter (TC20, Bio-Rad). Remove appropriate volume of resuspended cells from culture flask to accommodate 4000 cells/well @ 10 μL/well. Transfer H929 cells to 50 mL conical (#430290, Corning). Spin down at 1000 rpm for 5 min using tabletop centrifuge (SPINCHRON 15, Beckman). Discard supernatant and resuspend cell pellet in modified RPMI 1640 (#10-040-CV, Corning) cell culture media containing 10% FBS (F2422-500 ML, Sigma), sodium pyruvate (100 mM) (#25-000-CL, Corning), HEPES buffer (1 M) (#25-060-CL, Corning) and glucose (200 g/L) (A24940-01, Gibco) to a cell density of 400,000 cells/mL. Dispense 10 μL of resuspended H929 cells per well in 384-well small volume TC treated plate (#784080, Greiner Bio-one) using standard cassette (#50950372, Thermo Scientific) on Multi-drop Combi (#5840310, Thermo Scientific) in laminar flow cabinet. Dispense compounds onto plates using digital liquid dispenser (D300E, Tecan). Incubate plates in humidified tissue culture incubator @ 37° C. for 24 hours. Add 10 μL of prepared CellTiTer-Glo® detection buffer (G7570, Promega) or ATPlite 1Step detection reagent (#6016731, Perkin Elmer) to each well of 384-well plate using small tube cassette (#24073295, Thermo Scientific) on Combi multi drop, incubate @ RT for 30-60 min. Read plates with microplate reader (PheraStar, BMG Labtech) using 384 well luminescence mode.
In general terms: ATP-based viability assays read luminescence as a measure of living cells.

Drawing on patent publication US20230212191A1, “SPIRO-SULFONIMIDAMIDE DERIVATIVES AS INHIBITORS OF MYELOID CELL LEUKEMIA-1 (MCL-1) PROTEIN” (PRELUDE THERAPEUTICS, INCORPORATED, priority 2020, published 2023), this text covers Ki and IC50 for 13 compounds.

Where two headings read alike, the source gives them in different places.

T1 sequence (Q07820 whole entry): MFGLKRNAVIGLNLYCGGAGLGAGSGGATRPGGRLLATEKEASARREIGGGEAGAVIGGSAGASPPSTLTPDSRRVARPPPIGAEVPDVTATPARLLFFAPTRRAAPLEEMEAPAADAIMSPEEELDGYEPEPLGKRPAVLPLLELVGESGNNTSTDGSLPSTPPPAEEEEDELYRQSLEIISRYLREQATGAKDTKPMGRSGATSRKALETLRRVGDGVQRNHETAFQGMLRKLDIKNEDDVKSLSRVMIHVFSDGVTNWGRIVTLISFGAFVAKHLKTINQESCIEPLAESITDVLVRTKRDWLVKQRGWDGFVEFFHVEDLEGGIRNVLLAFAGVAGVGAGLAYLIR

What is called Ki is a measure of affinity in units of concentration, obtained from inhibition or displacement. The IC50 is the concentration at which inhibition is half-maximal. As for `COC1C=CCOC(C)(C)C(=O)N=S(=O)(NC(=O)N2CC(O)C2)c2ccc3c(c2)N(CC2CCC21)CC1(CCCc2cc(Cl)ccc21)CO3` (stereo not drawn) [29 or 30], the Ki at MCL-1 is under 1 nM. Moreover, in the experiment with H929 cells (24 hours), the IC50 was under 100 nM.

Consider `COC1C=CCOC(C)(C)C(=O)N=S(=O)(NC(=O)N2CC(O)C2)c2ccc3c(c2)N(CC2CCC21)CC1(CCCc2cc(Cl)ccc21)CO3` (stereo not drawn) [30 or 29], for which the inhibitory constant (Ki) on MCL-1 is over 1 nM. Further, the IC50 in the experiment on H929 cells (24 hours) is over 500 nM. As to `COC1CN(C(=O)NS2(=O)=NC(=O)C(C)(C)OCC=CC(OC)C3CCC3CN3CC4(CCCc5cc(Cl)ccc54)COc4ccc2cc43)C1` (stereo not drawn) [31 or 32], the Ki at MCL-1 was under 1 nM. Moreover, in the experiment with H929 cells (Homo sapiens, NCI-H929, 24 h), the half-inhibitory concentration (IC50) was under 100 nM. With `COC1CN(C(=O)NS2(=O)=NC(=O)C(C)(C)OCC=CC(OC)C3CCC3CN3CC4(CCCc5cc(Cl)ccc54)COc4ccc2cc43)C1` (stereo not drawn) [32 or 31], the Ki at MCL-1 was under 1 nM. Besides, the IC50 in the experiment on H929 cells (24 hours) lay in the range of 100 to 500 nM. As to `CO[C@H]1/C=C/COC(C)(C)C(=O)N=S(=O)(NC(=O)C2CCOCC2)c2ccc3c(c2)N(C[C@@H]2CC[C@H]21)C[C@@]1(CCCc2cc(Cl)ccc21)CO3` (stereo partly drawn) [Example 11, N-[(3R,6R,7S,8E,22S)-7′-Chloro-7-methoxy-12,12-dimethyl-13,15-dioxospiro[11,20-dioxa-15-thia-1,14-diazatetracyclo[14.7.2.03,6.019,24]pentacosa-8,14,16,18,24-pentaene-22,4′-2,3-dihydro-1H-naphthalene]-15-yl]oxane-4-carboxamide], on MCL-1, the Ki was under 1 nM. Further, the IC50 with H929 cells (Homo sapiens, NCI-H929, 24 h) is under 100 nM. For `CO[C@H]1/C=C/COC(C)(C)C(=O)N=S(=O)(NC(=O)c2ccccc2)c2ccc3c(c2)N(C[C@@H]2CC[C@H]21)C[C@@]1(CCCc2cc(Cl)ccc21)CO3` (stereo partly drawn) [Example 12, N-[(3R,6R,7S,8E,22S)-7′-Chloro-7-methoxy-12,12-dimethyl-13,15-dioxospiro[11,20-dioxa-15-thia-1,14-diazatetracyclo[14.7.2.03,6.019,24]pentacosa-8,14,16,18,24-pentaene-22,4′-2,3-dihydro-1H-naphthalene]-15-yl]benzamide] the same measures were under 1 nM and 100 to 500 nM.

Turning to `CO[C@H]1/C=C/COC(C)(C)C(=O)N=S(=O)(NC(=O)c2cnn(C)c2)c2ccc3c(c2)N(C[C@@H]2CC[C@H]21)C[C@@]1(CCCc2cc(Cl)ccc21)CO3` (stereo partly drawn) [Example 15, N-[(3R,6R,7S,8E,22S)-7′-Chloro-7-methoxy-12,12-dimethyl-13,15-dioxospiro[11,20-dioxa-15-thia-1,14-diazatetracyclo[14.7.2.03,6.019,24]pentacosa-8,14,16,18,24-pentaene-22,4′-2,3-dihydro-1H-naphthalene]-15-yl]-1-methylpyrazole-4-carboxamide], the Ki at MCL-1 is under 1 nM. Also, the IC50 in the experiment with H929 cells (Homo sapiens, NCI-H929, 24 h) was under 100 nM. In the case of `COc1nn(C)cc1C(=O)NS1(=O)=NC(=O)C(C)(C)OC/C=C/[C@H](OC)[C@@H]2CC[C@H]2CN2C[C@@]3(CCCc4cc(Cl)ccc43)COc3ccc1cc32` (stereo partly drawn) [Example 16, N-[(3R,6R,7S,8E,22S)-7′-Chloro-7-methoxy-12,12-dimethyl-13,15-dioxospiro[11,20-dioxa-15-thia-1,14-diazatetracyclo[14.7.2.03,6.019,24]pentacosa-8,14,16,18,24-pentaene-22,4′-2,3-dihydro-1H-naphthalene]-15-yl]-3-methoxy-1-methylpyrazole-4-carboxamide], on MCL-1, the inhibition constant Ki was under 1 nM. Also, the IC50 with H929 cells (Homo sapiens, NCI-H929, 24 h) is under 100 nM. For `CO[C@H]1/C=C/COC(C)(C)C(=O)N=S(=O)(NC(=O)c2cn(C)nc2C)c2ccc3c(c2)N(C[C@@H]2CC[C@H]21)C[C@@]1(CCCc2cc(Cl)ccc21)CO3` (stereo partly drawn) [Example 17, N-[(3R,6R,7S,8E,22S)-7′-chloro-7-methoxy-12,12-dimethyl-13,15-dioxospiro[11,20-dioxa-15-thia-1,14-diazatetracyclo[14.7.2.03,6.019,24]pentacosa-8,14,16,18,24-pentaene-22,4′-2,3-dihydro-1H-naphthalene]-15-yl]-1,3-dimethylpyrazole-4-carboxamide] the same measures were under 1 nM and under 100 nM. Take `CCNC(=O)NS1(=O)=NC(=O)C(C)(C)OC/C=C/[C@H](OC)[C@@H]2CC[C@H]2CN2C[C@@]3(CCCc4cc(Cl)ccc43)COc3ccc1cc32` (stereo partly drawn) [Example 20, 1-[(3R,6R,7S,8E,22S)-7′-Chloro-7-methoxy-12,12-dimethyl-13,15-dioxospiro[11,20-dioxa-15-thia-1,14-diazatetracyclo[14.7.2.03,6.019,24]pentacosa-8,14,16,18,24-pentaene-22,4′-2,3-dihydro-1H-naphthalene]-15-yl]-3-ethylurea]: the Ki at MCL-1 is under 1 nM. Also, the IC50 with H929 cells (Homo sapiens, NCI-H929, 24 h) is under 100 nM.

Turning to `CO[C@H]1/C=C/COC(C)(C)C(=O)N=S(=O)(NC(=O)N2CC(N(C)C)C2)c2ccc3c(c2)N(C[C@@H]2CC[C@H]21)C[C@@]1(CCCc2cc(Cl)ccc21)CO3` (stereo partly drawn) [Example 33, N-[(3R,6R,7S,8E,22S)-7′-Chloro-7-methoxy-12,12-dimethyl-13,15-dioxospiro[11,20-dioxa-15-thia-1,14-diazatetracyclo[14.7.2.03,6.019,24]pentacosa-8,14,16,18,24-pentaene-22,4′-2,3-dihydro-1H-naphthalene]-15-yl]-3-(dimethylamino)azetidine-1-carboxamide], the inhibition constant (Ki) on MCL-1 is under 1 nM. The IC50 in the experiment on H929 cells (Homo sapiens, NCI-H929, 24 h) was under 100 nM.

As to `CC(C)C(=O)NS1(=O)=NC(=O)C(C)(C)OC/C=C/[C@H](OCCN2CCCC2)[C@@H]2CC[C@H]2CN2C[C@@]3(CCCc4cc(Cl)ccc43)COc3ccc1cc32` (stereo partly drawn) [Example 54, N-[(3R,6R,7S,8E,22S)-7′-Chloro-12,12-dimethyl-13,15-dioxo-7-(2-pyrrolidin-1-ylethoxy)spiro[11,20-dioxa-15-thia-1,14-diazatetracyclo[14.7.2.03,6.019,24]pentacosa-8,14,16,18,24-pentaene-22,4′-2,3-dihydro-1H-naphthalene]-15-yl]-2-methylpropanamide], the Ki at MCL-1 is under 1 nM. The same measure, in the same setting: for `CC(C)C(=O)NS1(=O)=NC(=O)C(C)(C)OC/C=C/[C@H](OCCN(C)C)[C@@H]2CC[C@H]2CN2C[C@@]3(CCCc4cc(Cl)ccc43)COc3ccc1cc32` (stereo partly drawn) [Example 55, N-[(3R,6R,7S,8E,22S)-7′-Chloro-7-[2-(dimethylamino)ethoxy]-12,12-dimethyl-13,15-dioxospiro[11,20-dioxa-15-thia-1,14-diazatetracyclo[14.7.2.03,6.019,24]pentacosa-8,14,16,18,24-pentaene-22,4′-2,3-dihydro-1H-naphthalene]-15-yl]-2-methylpropanamide] the value was over 1 nM.
